Data reported in patent US11566007B2, “Ras inhibitors” (Revolution Medicines, Inc., priority 2019, dated 2023).
“And” between values parts separate entries of the source, which are not always exact repeats. Equal values may be shown once. Read-outs that look alike come from different tables or passages of the source.

How the values were obtained:
KRAS G13D = KRAS G13D (Homo sapiens (Human), UniProt P01116+P62937, G13D); assay: Ras-Raf (BRAF RBD) disruption / FRET / MOA assay, KRAS G13D; assay type: biochemical; details: read-out: IC50* KRAS G13D FRET data
How it was run: (§1)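 TR-FRET read-out: a drop in ratio relative to DMSO wells marks disruption of the Ras:RAF complex, reported as IC50. Compounds (3-fold series, 10 points, top 30 μM final) incubated 3 h at 25° C before Eu-anti-His 10 nM and APC-anti-GST 50 nM, 1.5 h more.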

KRAS WT = KRAS WT (Homo sapiens (Human), UniProt P01116+P62937); assay: Ras-Raf (BRAF RBD) disruption / FRET / MOA assay, KRAS WT; assay type: biochemical; details: read-out: IC50* KRAS WT FRET data
How it was run: as §1

KRAS G12V = KRAS G12V (Homo sapiens (Human), UniProt P01116+P62937, G12V); assay: Ras-Raf (BRAF RBD) disruption / FRET / MOA assay, KRAS G12V; assay type: biochemical; details: read-out: IC50* KRAS G12V FRET data
How it was run: as §1

KRAS G12D = KRAS G12D (Homo sapiens (Human), UniProt P01116+P62937, G12D); assay: Ras-Raf (BRAF RBD) disruption / FRET / MOA assay, KRAS G12D; assay type: biochemical; details: Ras-Raf disruption/FRET/MOA assay; class symbols; read-out: KRAS G12D FRET data IC50
How it was run: as §1

NRAS Q61R = NRAS Q61R (Homo sapiens (Human), UniProt P01111+P62937, Q61R); assay: Ras-Raf (BRAF RBD) disruption / FRET / MOA assay, NRAS Q61R; assay type: biochemical; details: NRAS Q61R; Ras-Raf disruption/FRET/MOA assay; read-out: IC50* NRAS Q61R FRET data
How it was run: (§2)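 Compounds were tested as a 10-point 3-fold dilution series from 30 μM final for their ability to drive ternary complex formation between nucleotide-loaded Ras and cyclophilin A, displacing the BRAF RBD. After 3 h at 25° C., anti-His Eu-W1024 (10 nM) and anti-GST allophycocyanin (50 nM) were added for 1.5 h. A TR-FRET ratio decrease versus DMSO gave IC50.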

NCI-H358 (K-Ras G12C) = assay: CellTiter-Glo cell viability assay, NCI-H358; assay type: cell-based, human; details: NCI-H358, 5-day treatment, class symbols, read-out: Additional H358 Cell Viability assay data (K-Ras G12C, IC50)
How it was run: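 Cells seeded, compound added directly, 5-day exposure. Plates to RT ~30 min, CellTiter-Glo luminescence read. Normalized to DMSO avg (x100); 4-parameter logistic fit.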

NRAS WT = NRAS WT (Homo sapiens (Human), UniProt P01111+P62937); assay: Ras-Raf (BRAF RBD) disruption / FRET / MOA assay, NRAS WT; assay type: biochemical; details: read-out: IC50* NRAS WT FRET data
How it was run: as §2

K-Ras G13C = K-Ras G13C (Homo sapiens (Human), UniProt P01116+P62937, G13C); assay: Ras-Raf (BRAF RBD) disruption / FRET / MOA assay, KRAS G13C; assay type: biochemical; details: KRAS G13C; Ras-Raf disruption/FRET/MOA assay; read-out: IC50* KRAS G13C FRET data
How it was run: as §1

K-Ras G12C = K-Ras G12C (Homo sapiens (Human), UniProt P01116+P62937, G12C); assay: Ras-Raf (BRAF RBD) disruption / FRET / MOA assay, KRAS G12C; assay type: biochemical; details: KRAS G12C; Ras-Raf disruption/FRET/MOA assay; read-out: IC50* KRAS G12C FRET data
How it was run: as §1

KRAS Q61H = KRAS Q61H (Homo sapiens (Human), UniProt P01116+P62937, Q61H); assay: Ras-Raf (BRAF RBD) disruption / FRET / MOA assay, KRAS Q61H; assay type: biochemical; details: Ras-Raf disruption/FRET/MOA assay; class symbols; read-out: KRAS Q61H FRET data IC50
How it was run: as §2

KRAS G12D, sequence (P01116-2 other isoform, or with tags, fused parts or gaps G12D): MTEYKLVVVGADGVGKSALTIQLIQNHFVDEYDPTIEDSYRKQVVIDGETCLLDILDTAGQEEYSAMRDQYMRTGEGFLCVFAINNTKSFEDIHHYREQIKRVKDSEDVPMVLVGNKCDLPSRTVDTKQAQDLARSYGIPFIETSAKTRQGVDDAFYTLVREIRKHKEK
KRAS G12D, sequence (P62937 whole entry): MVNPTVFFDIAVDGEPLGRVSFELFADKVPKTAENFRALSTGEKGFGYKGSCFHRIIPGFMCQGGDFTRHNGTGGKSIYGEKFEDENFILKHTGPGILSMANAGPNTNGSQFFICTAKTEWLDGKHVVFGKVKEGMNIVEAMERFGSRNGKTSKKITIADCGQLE
KRAS WT, sequence (P01116-2 other isoform, or with tags, fused parts or gaps): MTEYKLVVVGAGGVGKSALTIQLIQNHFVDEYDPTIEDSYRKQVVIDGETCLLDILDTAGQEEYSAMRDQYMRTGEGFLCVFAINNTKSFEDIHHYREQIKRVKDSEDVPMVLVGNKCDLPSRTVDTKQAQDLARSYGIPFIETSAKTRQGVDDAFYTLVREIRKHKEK
KRAS WT, sequence (P62937 whole entry): as the sequence (P62937 whole entry) above
NRAS WT, sequence (P01111 whole entry): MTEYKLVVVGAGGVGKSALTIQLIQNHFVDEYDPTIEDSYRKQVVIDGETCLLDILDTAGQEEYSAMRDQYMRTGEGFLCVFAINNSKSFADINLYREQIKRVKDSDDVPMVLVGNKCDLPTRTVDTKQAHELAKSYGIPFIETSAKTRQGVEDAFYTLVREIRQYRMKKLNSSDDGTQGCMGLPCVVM
NRAS WT, sequence (P62937 whole entry): as the sequence (P62937 whole entry) above
NRAS Q61R, sequence (P01111 whole entry Q61R): as the sequence (P01111 whole entry) above, with Q61R counted along it
NRAS Q61R, sequence (P62937 whole entry): as the sequence (P62937 whole entry) above
KRAS G13D, sequence (P01116-2 other isoform, or with tags, fused parts or gaps G13D): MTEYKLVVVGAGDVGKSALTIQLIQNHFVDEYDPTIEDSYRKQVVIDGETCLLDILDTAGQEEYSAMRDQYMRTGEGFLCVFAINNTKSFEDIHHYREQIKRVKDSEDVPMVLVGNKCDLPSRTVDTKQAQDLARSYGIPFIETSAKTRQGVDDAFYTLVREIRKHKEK
KRAS G13D, sequence (P62937 whole entry): as the sequence (P62937 whole entry) above
K-Ras G12C, sequence (P01116-2 other isoform, or with tags, fused parts or gaps G12C): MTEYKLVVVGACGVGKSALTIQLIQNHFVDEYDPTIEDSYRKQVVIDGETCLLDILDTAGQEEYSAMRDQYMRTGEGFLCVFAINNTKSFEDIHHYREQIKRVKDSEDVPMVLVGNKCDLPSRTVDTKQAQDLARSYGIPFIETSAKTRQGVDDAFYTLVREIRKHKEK
K-Ras G12C, sequence (P62937 whole entry): as the sequence (P62937 whole entry) above
K-Ras G13C, sequence (P01116-2 other isoform, or with tags, fused parts or gaps G13C): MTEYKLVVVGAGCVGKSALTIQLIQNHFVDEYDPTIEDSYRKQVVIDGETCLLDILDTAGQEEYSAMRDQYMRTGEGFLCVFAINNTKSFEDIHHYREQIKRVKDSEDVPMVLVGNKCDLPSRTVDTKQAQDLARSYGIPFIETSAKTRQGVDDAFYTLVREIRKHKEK
K-Ras G13C, sequence (P62937 whole entry): as the sequence (P62937 whole entry) above
KRAS Q61H, sequence (P01116-2 other isoform, or with tags, fused parts or gaps Q61H): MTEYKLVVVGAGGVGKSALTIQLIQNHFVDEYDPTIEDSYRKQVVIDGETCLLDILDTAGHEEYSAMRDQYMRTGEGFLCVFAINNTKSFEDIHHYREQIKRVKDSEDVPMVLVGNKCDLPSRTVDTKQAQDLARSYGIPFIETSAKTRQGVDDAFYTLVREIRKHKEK
KRAS Q61H, sequence (P62937 whole entry): as the sequence (P62937 whole entry) above
KRAS G12V, sequence (P01116-2 other isoform, or with tags, fused parts or gaps G12V): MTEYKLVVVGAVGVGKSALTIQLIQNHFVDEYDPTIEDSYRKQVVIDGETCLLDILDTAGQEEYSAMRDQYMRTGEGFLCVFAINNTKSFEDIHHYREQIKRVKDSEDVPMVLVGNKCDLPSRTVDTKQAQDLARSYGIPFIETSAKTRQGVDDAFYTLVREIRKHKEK
KRAS G12V, sequence (P62937 whole entry): as the sequence (P62937 whole entry) above

Row | Compound | IC50 (KRAS G13D) | IC50 (KRAS WT) | IC50 (KRAS G12V) | IC50 (KRAS G12D) | IC50 (NRAS Q61R) | IC50 (NCI-H358 (K-Ras G12C); Homo sapiens, NCI-H358, 120 h) | IC50 (NCI-H358 (K-Ras G12C)) | IC50 (NRAS WT) | IC50 (K-Ras G13C) | IC50 (K-Ras G12C) | IC50 (KRAS Q61H)
1 | C=CC(=O)N1CC[C@H](C(=O)N(C)[C@H](C(=O)N[C@H]2Cc3cc(O)cc(c3)-c3ccc4c(c3)c(c(-c3cc(C)ccc3[C@H](C)OC)n4CC)CC(C)(C)COC(=O)[C@@H]3CCCN(N3)C2=O)C(C)C)C1 (atropisomer, axis not shown) [Example A167] | 0.1 to 1 µM and > 10 µM | 1 to 10 µM and 0.01 to 0.1 µM | 1 to 10 µM and 0.01 to 0.1 µM | > 10 µM and 0.1 to 1 µM | 0.1 to 1 µM | 0.01 to 0.1 µM | < 0.01 µM | 0.01 to 0.1 µM | 0.01 to 0.1 µM and 1 to 10 µM | 0.1 to 1 µM and < 0.01 µM | 0.01 to 0.1 µM
2 | CC#CC(=O)N1CCC(C(=O)N(C)[C@H](C(=O)N[C@H]2Cc3nc(cs3)-c3ccc4c(c3)c(c(-c3cccnc3[C@H](C)OC)n4CC)CC(C)(C)COC(=O)[C@@H]3CCCN(N3)C2=O)C(C)C)C1 (atropisomer, axis not shown) [Example A168] | > 10 µM | 1 to 10 µM | 1 to 10 µM | > 10 µM | 1 to 10 µM | 0.01 to 0.1 µM |  | 1 to 10 µM | 1 to 10 µM | 0.1 to 1 µM | 1 to 10 µM
3 | C=CC(=O)N1CC[C@H](C(=O)N(C)[C@H](C(=O)N[C@H]2Cc3cccc(c3)-c3ccc4c(c3)c(c(-c3cccnc3[C@H](C)OC)n4CC(F)F)CC(C)(C)COC(=O)[C@@H]3CCCN(N3)C2=O)C(C)C)C1 (atropisomer, axis not shown) [Example A335] | 1 to 10 µM | 1 to 10 µM | 1 to 10 µM | > 10 µM | 1 to 10 µM | 0.01 to 0.1 µM |  | 1 to 10 µM | 1 to 10 µM | 0.1 to 1 µM | 1 to 10 µM
4 | C=CC(=O)N1CC[C@H](C(=O)N(C)[C@H](C(=O)N[C@H]2Cc3cc(cc(C(F)F)c3)-c3ccc4c(c3)c(c(-c3cccnc3[C@H](C)OC)n4CC)CC(C)(C)COC(=O)[C@@H]3CCCN(N3)C2=O)C(C)C)C1 (atropisomer, axis not shown) [Example A341, (3S)-1-acryloyl-N-((2S)-1-(((6^3S,4S)-2^5-(difluoromethyl)-1^1-ethyl-1^2-(2-((S)-1-methoxyethyl)pyridin-3-yl)-10,10-dimethyl-5,7-dioxo-6^1,6^2,6^3,6^4,6^5,6^6-hexahydro-1^1H-8-oxa-1(5,3)-indola-6(1,3)-pyridazina-2(1,3)-benzenacycloundecaphane-4-yl)amino)-3-methyl-1-oxobutan-2-yl)-N-methylpyrrolidine-3-carboxamide] | 1 to 10 µM | 1 to 10 µM | 1 to 10 µM | 1 to 10 µM | 1 to 10 µM | 0.01 to 0.1 µM |  | 1 to 10 µM | 0.1 to 1 µM | 0.1 to 1 µM | 0.1 to 1 µM
5 | C=CC(=O)N1CC(OC[C@H](C(=O)N[C@H]2Cc3cccc(c3)-c3ccc4c(c3)c(c(-c3cccnc3[C@H](C)OC)n4CC(F)(F)F)CC(C)(C)COC(=O)[C@@H]3CCCN(N3)C2=O)C(C)C)C1 (atropisomer, axis not shown) [Example A344] | 1 to 10 µM | 1 to 10 µM | 1 to 10 µM | > 10 µM | 1 to 10 µM | < 0.01 µM |  | 1 to 10 µM | 0.1 to 1 µM | 0.01 to 0.1 µM | 0.1 to 1 µM
6 | C=CC(=O)N1CC(OC[C@H](C(=O)N[C@H]2Cc3cc(cc(C(F)F)c3)-c3ccc4c(c3)c(c(-c3cccnc3[C@H](C)OC)n4CC)CC(C)(C)COC(=O)[C@@H]3CCCN(N3)C2=O)C(C)C)C1 (atropisomer, axis not shown) [Example A345] | > 10 µM | > 10 µM | > 10 µM | > 10 µM | > 10 µM | 0.1 to 1 µM |  | > 10 µM | 1 to 10 µM | 1 to 10 µM | 1 to 10 µM
7 | C=CC(=O)N1CC2(COCCN2C(=O)N(C)[C@H](C(=O)N[C@H]2Cc3nc(cs3)-c3ccc4c(c3)c(c(-c3cccnc3[C@H](C)OC)n4CC)CC(C)(C)COC(=O)[C@@H]3CCCN(N3)C2=O)C(C)C)C1 (atropisomer, axis not shown) [Example A352] | > 10 µM | 1 to 10 µM | > 10 µM | > 10 µM | 1 to 10 µM | < 0.01 µM |  | 1 to 10 µM | > 10 µM | 0.01 to 0.1 µM | 1 to 10 µM
8 | C=CC(=O)N1CC[C@@]2(C1)CN(C(=O)N(C)[C@H](C(=O)N[C@H]1Cc3nc(cs3)-c3ccc4c(c3)c(c(-c3cccnc3[C@H](C)OC)n4CC)CC(C)(C)COC(=O)[C@@H]3CCCN(N3)C1=O)C(C)C)CCO2 (atropisomer, axis not shown) [Example A353] | 0.1 to 1 µM | 0.1 to 1 µM | 0.1 to 1 µM | 0.1 to 1 µM | 0.1 to 1 µM | 0.01 to 0.1 µM |  | 0.1 to 1 µM | 0.1 to 1 µM | 0.01 to 0.1 µM | 0.01 to 0.1 µM
9 | C=CC(=O)NC[C@H]1CCN1C(=O)N(C)[C@H](C(=O)N[C@H]1Cc2nc(cs2)-c2ccc3c(c2)c(c(-c2cccnc2[C@H](C)OC)n3CC)CC(C)(C)COC(=O)[C@@H]2CCCN(N2)C1=O)C(C)C (atropisomer, axis not shown) [Example A356] | 1 to 10 µM | 0.1 to 1 µM | 1 to 10 µM | 1 to 10 µM | 0.1 to 1 µM | < 0.01 µM |  | 0.1 to 1 µM | 0.1 to 1 µM | 0.1 to 1 µM | 0.1 to 1 µM
10 | C=C(C)C(=O)N1CC(N(C)C(=O)N(C)[C@H](C(=O)N[C@H]2Cc3nc(cs3)-c3ccc4c(c3)c(c(-c3cccnc3[C@H](C)OC)n4CC)CC(C)(C)COC(=O)[C@@H]3CCCN(N3)C2=O)C(C)C)C1 (atropisomer, axis not shown) [Example A360] | 1 to 10 µM | 0.1 to 1 µM | 0.1 to 1 µM | 1 to 10 µM | 0.1 to 1 µM | 0.01 to 0.1 µM |  | 0.1 to 1 µM | 0.1 to 1 µM | 0.1 to 1 µM | 0.1 to 1 µM
11 | CCn1c(-c2cccnc2[C@H](C)OC)c2c3cc(ccc31)-c1csc(n1)C[C@H](NC(=O)[C@H](C(C)C)N(C)C(=O)N(C)C1CN(C(=O)/C=C/CN(C)C)C1)C(=O)N1CCC[C@H](N1)C(=O)OCC(C)(C)C2 (atropisomer, axis not shown) [Example A361] | 0.1 to 1 µM | 0.1 to 1 µM | 0.1 to 1 µM | 1 to 10 µM | 0.1 to 1 µM | 0.01 to 0.1 µM |  | 0.1 to 1 µM | 0.1 to 1 µM | 0.01 to 0.1 µM | 0.1 to 1 µM
